Source: PMC5397431, “Multigeneration toxicity of imidacloprid and thiacloprid to Folsomia candida” (Ecotoxicology (London, England), 2017)

How the values were obtained:
[1] = Chemical analysis of concentrations in test soil (LC-MS) and degradation half-life (DT50); assay type: physicochemical
Protocol: Soil samples for chemical analysis of imidacloprid and thiacloprid in the test soil were taken at the start of the exposure of each new generation.
The analytical method to determine actual imidacloprid and thiacloprid concentrations in the test soils followed the principles of the QuEChERS extraction method modified from Anastasiades et al. ([2003]) and Payá et al. ([2007]). Briefly, the procedure used was as follows: approx. 1 g moist soil was taken for low concentration treatments (<1 mg/kg), and 50 µL internal standard (Imidacloprid-d4 and Thiacloprid-d4, 250 µg/L) was added. The sample was shaken for 20 min at 250 rpm with 2 mL methanol and centrifuged for 3 min at 1500 rpm. The methanol phase was passed through a granular Na2SO4 column, evaporated till dryness and the residue taken up in 3 mL acetonitrile. For high concentration samples (>1 mg/kg), the soil was first shaken with methanol and centrifuged. Subsequently an aliquot of 100 µL was taken and together with 50 µL internal standard (Imidacloprid-d4 and Thiacloprid-d4, 250 µg/L) added to 1 mL methanol, passed through a granular Na2SO4 column, evaporated to dryness and taken up in 3 mL acetonitrile. For clean-up, the acetonitrile extract was added to a tube filled with Supel QuE (C18 150 mg, PSA 150 mg, MgSO4 900 mg, Sigma Aldrich), shaken by hand for 2 min and centrifuged for 3 min at 3000 rpm. The supernatant was evaporated till dryness under gentle nitrogen stream and the residue taken up in 200 µL of a water-methanol (9/1) mixture.
Extracts were analyzed using LC-MS and quantified by isotope dilution (imidacloprid-d4 and thiacloprid-d4). The neonicotinoids were separated on a 100 × 2.1 mm, 2.6 µm Kinetex XB-C18 column (Phenomenex), applying a gradient of 5 mM ammonium formate pH 4 buffer and methanol, at a flow rate of 0.3 mL/min. The LC system (Agilent 1200 series) was coupled to a 6410 triple quadrupole MS (Agilent) using electrospray ionization (ESI) with data acquisition in positive ion mode. The transitions for imidacloprid were 256.1 > 175/209 (quantifier/qualifier) and for imidacloprid-d4 260 > 179. For thiacloprid the transitions were253.1 > 126/90 (quantifier/qualifier) with 257 > 126 for thiacloprid-d4.
Using data on the imidacloprid and thiacloprid concentrations measured at different times after spiking the soil in the multigeneration test, half-life (DT50) values were estimated assuming first order degradation kinetics. The equation C = C0 * e^−k*t was fitted to the data, with C = concentration at time t in days, C0 is concentration at t = 0 and k = degradation rate constant (day^−1). DT50 was derived as ln(2) / k.

Folsomia candida = assay: Literature data on toxicity to Folsomia candida in soil; assay type: in vivo; details: 28-day, artificial soil; 10% OM (sphagnum peat), pure; recalculated with logistic dose-response model from figures; ref Reynolds (2008)
Source text: The LC50 and EC50 values for the toxicity of imidacloprid found in this study are within the range set by previous studies in our lab (Table S3). The values reported by Idinger ([2002]) for the toxicity of imidacloprid in the commercial formulation Confidor 70WP, tested in artificial soil, also are in the same range. Some LC50s reported in the literature, however, are somewhat higher, which could be explained by several factors. […] The use of an artificial soil with higher OM contents probably also explains the somewhat higher LC50 and EC50 values reported by Reynolds ([2008]). […] For two commercial formulations, EFSA ([2008]) found lower NOECs of 0.2–0.32 mg a.s./kg. Laboratory conditions such as temperature and light/dark regime may affect the metabolism of test animals, leading to differential toxicity of imidacloprid.
Table S3. Overview of data on the toxicity of imidacloprid and thiacloprid to Folsomia candida. All LC50 and EC50 values are in mg/kg dry soil and all tests were carried out on a 28-day exposure period. OM = organic matter.

Aphis gossypii = tested on: Aphis gossypii; parameters: method as in Shi et al. (2011); details: exposed dermally for 48 h; ref Shi et al. (2011); cited from earlier work
honeybees = tested on: honeybees; parameters: method as in Iwasa et al. (2004); details: acute dermal exposure; ref Iwasa et al. (2004); cited from earlier work

O=[N+]([O-])NC1=NCCN1Cc1ccc(Cl)nc1 [Imidacloprid, imidacloprid]
concentration, % of the nominal concentration ([1]; LUFA 2.2 soil, after 28 days of incubation at 20 °C, all concentrations analysed): 68.1–83.8% | recovery, % of the nominal concentration ([1]; LUFA 2.2 soil, start of F0 exposure (T=0)): 77.6–89.9% | concentration measured in soil ([1]; T=0, nominal 0.01, mean ± SD (n=3)): 0.0078±0.0028 mg/kg dry soil | concentration measured in soil ([1]; T=0, nominal 0.1, mean ± SD (n=3)): 0.082±0.0018 mg/kg dry soil | concentration measured in soil ([1]; T=0, nominal 0.3, mean ± SD (n=3)): 0.27±0.014 mg/kg dry soil | concentration measured in soil ([1]; T=0, nominal 1.0, mean ± SD (n=3)): 0.86±0.022 mg/kg dry soil | concentration measured in soil ([1]; T=28 d, nominal 0.1, mean ± SD (n=3)): 0.068±0.0025 mg/kg dry soil | concentration measured in soil ([1]; T=28 d, nominal 0.3, mean ± SD (n=3)): 0.23±0.0092 mg/kg dry soil | concentration measured in soil ([1]; T=28 d, nominal 1.0, mean ± SD (n=3)): 0.84±0.083 mg/kg dry soil | half-life ([1]; pH 5.4): ≥ 125 days | EC50, recalculated (Folsomia candida): 0.26^& mg/kg dry soil | LC50, recalculated (Folsomia candida): 0.86^& mg/kg dry soil | times more sensitive than to thiacloprid (Aphis gossypii): about 7.5 times | times more toxic than thiacloprid (honeybees): about 800 times
